Earlier results as cited in patent US10537528B2 (The Regents of the University of California, priority 2015, dated 2020).

Key:
[1] = tested on: obese individuals with NASH; conditions: treated for 4-12 weeks
[2] = tested on: intracellular cystine (circulating white blood cells)
[3] = tested on: obese children who had steatosis; conditions: 400-1000 IU/day for 4-10 months

In the case of CC(=O)N[C@@H](CS)C(=O)O [N-acetylcysteine], the “aminotransferase levels and gamma-GT” value [1] is given as “improvement” and the “subject body mass index” value [1] is given as “no reported change”.

For NCCS [cysteamine], the “time to observed decrease in leukocyte cystine” value ([2]; delivery into the small intestine (WO 2007/089670)) is given as “within an hour” and the “depletion of intracellular cystine” value ([2]; taken regularly, measured in circulating white blood cells) is given as “up to 90%”.

In the case of vitamin E, the “mean AST levels after treatment” value ([3]; decreased from 104±61 IU/L, P<0.002) is given as 33±11 IU/L and the “mean ALT levels after treatment” value ([3]; decreased from 175±106 IU/L, P<0.01) is given as 40±26 IU/L.
